Results published in patent US20140072624A1, “UNIT DOSE FORM FOR ORAL ADMINISTRATION” (THRESHOLD PHARMACEUTICALS, INC., priority 2011, published 2014).
Read-outs that look alike come from different tables or passages of the source.

Key:
[1] = Pharmacokinetics of TH-302 in rats after a single oral (PO) dose; format: in vivo, Sprague-Dawley rats
Description: TH-302 (1-methyl-2-nitro-1H-imidazole-5-yl) N,N′-bis(2-bromoethyl) diamidophosphate, m.w.=449) that was about 96% pure based on high performance liquid chromatography (HPLC) analysis, was used. Male Sprague-Dawley rats (n=3 per time point) were administered a single oral dose of 100 mg/kg TH-302 (see, Table 1 and FIG. 1).

[2] = Single dose pharmacokinetics of TH-302 after a 30-min intravenous infusion in rats; format: in vivo; details: for Vd: read-out: Vss
[3] = Pharmacokinetics of TH-302 in rats after a single IV dose; format: in vivo, Sprague-Dawley rats; details: rat; for Tmax: Sprague-Dawley, plasma
[4] = male Sprague-Dawley rats, single oral dose 100 mg/kg in normal saline
[5] = rat, PO, 100 mg/kg, composite data, n = 3 per time point
[6] = Sprague-Dawley, rat, plasma, female rats, 50 mg/kg, 30-min IV infusion
[7] = Sprague-Dawley, rat, plasma, female rats, 100 mg/kg, 30-min IV infusion
[8] = Sprague-Dawley, rat, plasma, male rats, 50 mg/kg, 30-min IV infusion
[9] = Sprague-Dawley, rat, plasma, male rats, 100 mg/kg, 30-min IV infusion
[10] = Sprague-Dawley, rat, plasma, male rats, 200 mg/kg, 30-min IV infusion
[11] = male rats, 100 mg/kg, 30-min IV infusion
[12] = rat, plasma, female rats, 200 mg/kg, 30-min IV infusion

With `Cn1c(COP(=O)(NCCBr)NCCBr)cnc1[N+](=O)[O-]` [TH-302] as the compound, how does the “time of mean peak plasma concentration (first sampled time point)” value ([1]; male Sprague-Dawley rats, single oral dose 100 mg/kg) read?
The value was 15 min.

And the “mean peak plasma concentration” value [1, 4]?
The value was 15.8 µg/mL.

What about the “time of mean peak plasma concentration (first sampling time point)” value [1, 4] of the same compound?
The value was 0.25 h.

And the “oral absorption (in words)” value ([1]; male Sprague-Dawley rats, single oral dose 100 mg/kg, 100 mg/kg)?
The value was “rapidly and well absorbed”.

What about the t1/2 ([1]; male rat, PO, 100 mg/kg, composite data, n = 3 per time point) of the same compound?
The t1/2 was 96 min.

And the Tmax ([1]; male, Sprague-Dawley, plasma, rat, PO, 100 mg/kg, composite data, n = 3 per time point)?
Its Tmax is 15 min.

What about the bioavailability ([1]; male, Sprague-Dawley, rat, plasma, oral, 100 mg/kg, male rat, PO, 100 mg/kg vs 100 mg/kg 30 minute IV infusion, read-out: Oral F (absolute oral bioavailability)) of the same compound?
The bioavailability was 77.3%.

What about the “AUC (total area under the concentration-time curve from zero to infinity)” value [1, 5] of the same compound?
The value was 13.1 μg-.

What about the Cmax [1, 5] of the same compound?
The Cmax was 15.8 μg/m.

What about the AUC ([1]; rat, plasma, male Sprague-Dawley rats, single oral dose 100 mg/kg, read-out: mean area under the curve (AUC)) of the same compound?
Its AUC is 13100 ng·h/mL.

What about the Cmax [2, 6] of the same compound?
The Cmax was 14100 ng/mL.

And the Tmax [2, 6]?
Its Tmax is 31 min.

And the clearance [2, 6]?
Its clearance is 115 mL/min/kg.

What about the Vd [2, 6] of the same compound?
Its Vd is 2.81 L/kg.

And the Cmax [2, 7]?
Its Cmax is 30000 ng/mL.

What about the Tmax [2, 7] of the same compound?
Its Tmax is 30 min.

What about the clearance [2, 7] of the same compound?
The clearance was 103 mL/min/kg.

What about the Vd [2, 7] of the same compound?
The Vd was 2.59 L/kg.

What about the Vd ([2]; Sprague-Dawley, rat, plasma, female rats, 200 mg/kg, 30-min IV infusion) of the same compound?
Its Vd is 2.35 L/kg.

What about the Cmax [2, 8] of the same compound?
The Cmax was 15600 ng/mL.

What about the Tmax [2, 8] of the same compound?
Its Tmax is 31 min.

And the clearance [2, 8]?
Its clearance is 104 mL/min/kg.

And the Vd [2, 8]?
The Vd was 2.57 L/kg.

And the Tmax [2, 9]?
The Tmax was 33 min.

What about the clearance [2, 9] of the same compound?
The clearance was 98.3 mL/min/kg.

What about the Cmax ([2]; Sprague-Dawley, rat, plasma, male rats, 100 mg/kg, 30-min IV infusion (end of infusion)) of the same compound?
The Cmax was 30900 ng/mL.

And the Vd [2, 9]?
Its Vd is 2.59 L/kg.

And the Cmax [2, 10]?
The Cmax was 62500 ng/mL.

And the Tmax [2, 10]?
The Tmax was 33 min.

What about the clearance [2, 10] of the same compound?
The clearance was 89.7 mL/min/kg.

What about the Vd [2, 10] of the same compound?
The Vd was 2.51 L/kg.

What about the AUC ([2]; female, Sprague-Dawley, rat, plasma, iv, 50 mg/kg, female rats, 50 mg/kg, 30-min IV infusion, read-out: AUC) of the same compound?
Its AUC is 7330 ng·h/mL.

What about the half-life ([2]; female, Sprague-Dawley, rat, plasma, iv, 50 mg/kg, female rats, 50 mg/kg, 30-min IV infusion, read-out: Half-Life (converted)) of the same compound?
The half-life was 19.1 min.

And the AUC ([2]; female, Sprague-Dawley, rat, plasma, iv, 100 mg/kg, female rats, 100 mg/kg, 30-min IV infusion, read-out: AUC)?
Its AUC is 16100 ng·h/mL.

What about the half-life ([2]; female, Sprague-Dawley, rat, plasma, iv, 100 mg/kg, female rats, 100 mg/kg, 30-min IV infusion, read-out: Half-Life (converted)) of the same compound?
Its half-life is 17.2 min.

What about the AUC ([2]; female, rat, plasma, iv, 200 mg/kg, female rats, 200 mg/kg, 30-min IV infusion, read-out: AUC) of the same compound?
Its AUC is 40600 ng·h/mL.

What about the half-life ([2]; female, rat, plasma, iv, 200 mg/kg, female rats, 200 mg/kg, 30-min IV infusion, read-out: Half-Life (converted)) of the same compound?
Its half-life is 23.4 min.

What about the AUC [2, 11] of the same compound?
The AUC was 17000 ng·h/mL.

What about the half-life [2, 11] of the same compound?
The half-life was 16.1 min.

What about the AUC ([2]; male, Sprague-Dawley, rat, plasma, iv, 50 mg/kg, male rats, 50 mg/kg, 30-min IV infusion, read-out: AUC) of the same compound?
Its AUC is 7940 ng·h/mL.

And the half-life ([2]; male, Sprague-Dawley, rat, plasma, iv, 50 mg/kg, male rats, 50 mg/kg, 30-min IV infusion, read-out: Half-Life (converted))?
The half-life was 20 min.

And the AUC ([2]; male, Sprague-Dawley, rat, plasma, iv, 100 mg/kg, male rats, 100 mg/kg, 30-min IV infusion, read-out: AUC)?
Its AUC is 17100 ng·h/mL.

And the half-life ([2]; male, Sprague-Dawley, rat, plasma, iv, 100 mg/kg, male rats, 100 mg/kg, 30-min IV infusion, read-out: Half-Life (converted))?
The half-life was 16.2 min.

What about the AUC ([2]; male, Sprague-Dawley, rat, plasma, iv, 200 mg/kg, male rats, 200 mg/kg, 30-min IV infusion, read-out: AUC) of the same compound?
The AUC was 37600 ng·h/mL.

What about the half-life ([2]; male, Sprague-Dawley, rat, plasma, iv, 200 mg/kg, male rats, 200 mg/kg, 30-min IV infusion, read-out: Half-Life (converted)) of the same compound?
Its half-life is 19.4 min.

What about the Cmax [2, 12] of the same compound?
The Cmax was 71100 ng/mL.

And the Tmax [2, 12]?
The Tmax was 41 min.

What about the clearance [2, 12] of the same compound?
Its clearance is 80.7 mL/min/kg.

And the Tmax ([3]; 1 mg/kg, n = 3, mean ± S.D.)?
The Tmax was 1.98 min.

What about the Tmax ([3]; 5 mg/kg, n = 2, mean ± S.D.) of the same compound?
The Tmax was 1.98 min.

And the Tmax ([3]; 20 mg/kg, n = 3, mean ± S.D.)?
Its Tmax is 1.98 min.

What about the Tmax ([3]; 50 mg/kg, n = 3, mean ± S.D.) of the same compound?
Its Tmax is 1.98 min.

And the “AUC (total area under the concentration-time curve from zero to infinity)” value ([3]; 1 mg/kg, n = 3, mean ± S.D.)?
Its value is 0.221 ± 0.054 μg-.

And the Cmax ([3]; 1 mg/kg, n = 3, mean ± S.D.)?
Its Cmax is 0.802 ± 0.165 μg/m.

And the “AUC (total area under the concentration-time curve from zero to infinity)” value ([3]; 5 mg/kg, n = 2)?
The value was 0.826 μg-.

What about the Cmax ([3]; 5 mg/kg, n = 2) of the same compound?
Its Cmax is 3.82 μg/m.

What about the “AUC (total area under the concentration-time curve from zero to infinity)” value ([3]; 20 mg/kg, n = 3, mean ± S.D.) of the same compound?
Its value is 3.30 ± 0.36 μg-.

And the Cmax ([3]; 20 mg/kg, n = 3, mean ± S.D.)?
Its Cmax is 13.5 ± 1.52 μg/m.

What about the “AUC (total area under the concentration-time curve from zero to infinity)” value ([3]; 50 mg/kg, n = 3, mean ± S.D.) of the same compound?
Its value is 8.47 ± 0.02 μg-.

And the Cl ([3]; 50 mg/kg, n = 3, mean ± S.D.)?
Its Cl is 98.5 ± 4.17 mL/min/kg.

What about the Cmax ([3]; 50 mg/kg, n = 3, mean ± S.D.) of the same compound?
The Cmax was 35.5 ± 3.01 μg/m.

And the Vss ([3]; 50 mg/kg, n = 3, mean ± S.D.)?
Its Vss is 1.67 ± 0.04 L/kg.
